Values quoted from earlier work as cited in article PMC10360060, “Electroosmotic Perfusion, External Microdialysis: Simulation and Experiment” (ACS Chemical Neuroscience, 2023).
Read-outs that look alike come from different tables or passages of the source.

What was measured:
[1] = tested on: insulin regulated aminopeptidase (IRAP); details: perfusion of inhibitor in rat neocortex in vivo, online capillary LC-MS2
Text: Following our discovery that brain tissue has a significant ζ-potential,[36] we learned how to use this property of brain tissue to infuse solutes into brain and organotypic hippocampal slice cultures (OHSCs) using controlled electrical current[37],[38] and to infuse substrates of known ectoenzymes and determine information about these enzymes in OHSCs[39]−[43] and in vivo.[44] For the in vivo work, direct laser writing by two-photon polymerization was used to manufacture a device (Supporting Information, section S3). A pointed, narrow capillary adjacent to a microdialysis probe was the source ...

[2] = saline solution, parameter used in simulations, ref Li and Carr, Scheibel, Häckel et al.[65]−[67]
Text: Table 1 List of Parameters Used in Simulations | column: magnitude

[3] = 37 °C (body temperature, tissue)

Row | Compound | inhibition of YGGFL hydrolysis [1] | Diffusion coefficients ([2]; 22 °C (lab temperature)) | Diffusion coefficients [2, 3]
1 | CCOC(=O)C1=C(NC(C)=O)Oc2cc(O)ccc2C1c1cccnc1 (centres unmarked) [HFI-419] | dose-dependent inhibition |  | 
2 | GGFL [hydrolysis product of YGGFL] |  | 5.0 × 10^–10 m^2/s | 6.5 × 10^–10 m^2/s
3 | YGGFL [leucine enkephalin, natural neuropeptide substrate infused through tissue] |  | 4.2 × 10^–10 m^2/s | 5.5 × 10^–10 m^2/s
